Laboratory results published in the NIST ThermoML archive (doi:10.1016/j.jct.2018.02.022).
± gives the expanded uncertainty stated by the source.

Test: xn = mol fraction of the nth substance listed
Settings: 92.3 kPa, Liquid; for viscosity: Concentric cylinders viscometry; for speed of sound: Frequency=3 MHz, Single path-length method; for mass density: Vibrating tube method

OCCO [1,2-ethanediol] + O
Settings | mass density, 293.15 K [kg/m3] | mass density, 298.15 K [kg/m3] | speed of sound, 293.15 K [m/s] | speed of sound, 298.15 K [m/s] | viscosity, 293.15 K [mPa·s] | viscosity, 298.15 K [mPa·s]
x1 = 0.0101 | 1002.83 ± 3.2 | 1001.54 ± 3.2 | 1498.9 ± 1.8 | 1511.9 ± 1.8 | – | –
x1 = 0.0201 | 1006.96 ± 3.2 | 1005.57 ± 3.2 | 1514.6 ± 1.8 | 1526.3 ± 1.8 | – | –
x1 = 0.0302 | 1011.02 ± 3.2 | 1009.56 ± 3.2 | 1529.7 ± 1.8 | 1540.2 ± 1.8 | – | –
x1 = 0.0407 | 1015.07 ± 3.2 | 1013.5 ± 3.2 | 1544.6 ± 1.8 | 1553.8 ± 1.8 | – | –
x1 = 0.0494 | 1018.4 ± 3.2 | 1016.76 ± 3.2 | – | – | 1.541 ± 0.22 | 1.253 ± 0.18
x1 = 0.0506 | 1018.75 ± 3.2 | 1017.08 ± 3.2 | 1558.1 ± 1.8 | 1566.2 ± 1.8 | – | –
x1 = 0.0605 | 1022.31 ± 3.2 | 1020.55 ± 3.2 | 1570.8 ± 1.8 | 1577.9 ± 1.8 | – | –
x1 = 0.0704 | 1025.78 ± 3.2 | 1023.96 ± 3.2 | 1583.2 ± 1.8 | 1589.2 ± 1.8 | – | –
x1 = 0.0801 | 1029.04 ± 3.2 | 1027.15 ± 3.2 | 1594 ± 1.8 | 1599 ± 1.8 | – | –
x1 = 0.0905 | 1032.34 ± 3.2 | 1030.37 ± 3.2 | 1605.6 ± 1.8 | 1609.6 ± 1.8 | – | –
x1 = 0.0986 | 1034.8 ± 3.2 | 1032.78 ± 3.2 | – | – | 2.078 ± 0.29 | 1.68 ± 0.24
x1 = 0.0997 | 1035.3 ± 3.2 | 1033.24 ± 3.2 | 1614.8 ± 1.8 | 1618 ± 1.8 | – | –
x1 = 0.1483 | 1048.46 ± 3.3 | 1046.12 ± 3.3 | – | – | 2.699 ± 0.38 | 2.167 ± 0.3
x1 = 0.1493 | 1048.74 ± 3.3 | 1046.4 ± 3.3 | 1656.2 ± 1.8 | 1655.5 ± 1.8 | – | –
x1 = 0.1985 | 1059.45 ± 3.3 | 1056.96 ± 3.3 | 1684.5 ± 1.8 | 1681 ± 1.8 | – | –
x1 = 0.2072 | 1061.51 ± 3.3 | 1058.86 ± 3.3 | – | – | 3.517 ± 0.49 | 2.811 ± 0.39
x1 = 0.2466 | 1068.68 ± 3.3 | 1065.86 ± 3.3 | – | – | 4.104 ± 0.57 | 3.276 ± 0.46
x1 = 0.2487 | 1069.2 ± 3.3 | 1066.32 ± 3.3 | 1702.1 ± 1.8 | 1696.5 ± 1.8 | – | –
x1 = 0.298 | 1076.5 ± 3.3 | 1073.51 ± 3.3 | – | – | 4.94 ± 0.69 | 3.936 ± 0.55
x1 = 0.2998 | 1076.8 ± 3.3 | 1073.79 ± 3.3 | 1712.9 ± 1.8 | 1705.8 ± 1.8 | – | –
x1 = 0.3318 | 1080.9 ± 3.3 | 1077.77 ± 3.3 | 1716.6 ± 1.8 | 1708.7 ± 1.8 | – | –
x1 = 0.3399 | 1081.8 ± 3.3 | 1078.69 ± 3.3 | – | – | 5.663 ± 0.79 | 4.507 ± 0.63
x1 = 0.3921 | 1087.31 ± 3.3 | 1084.09 ± 3.3 | – | – | 6.621 ± 0.93 | 5.261 ± 0.74
x1 = 0.3981 | 1087.84 ± 3.3 | 1084.61 ± 3.3 | 1719.4 ± 1.8 | 1710.4 ± 1.8 | – | –
x1 = 0.4446 | 1091.88 ± 3.3 | – | – | – | 7.638 ± 1.1 | 6.062 ± 0.85
x1 = 0.4521 | 1092.39 ± 3.3 | – | 1718.6 ± 1.8 | 1708.8 ± 1.8 | – | –
x1 = 0.4934 | 1095.4 ± 3.3 | 1092.05 ± 3.3 | 1716.1 ± 1.8 | 1705.9 ± 1.8 | – | –
x1 = 0.5007 | – | 1092.56 ± 3.3 | – | – | 8.782 ± 1.2 | 6.959 ± 0.97
x1 = 0.5485 | 1098.81 ± 3.3 | 1095.42 ± 3.3 | – | – | 9.81 ± 1.4 | 7.764 ± 1.1
x1 = 0.552 | 1099 ± 3.3 | – | 1711.5 ± 1.8 | 1700.9 ± 1.8 | – | –
x1 = 0.5846 | 1100.79 ± 3.3 | 1097.38 ± 3.3 | 1708.3 ± 1.8 | 1697.6 ± 1.8 | – | –
x1 = 0.6004 | 1101.51 ± 3.3 | 1098.09 ± 3.3 | – | – | 10.95 ± 1.5 | 8.662 ± 1.2
x1 = 0.6451 | 1103.53 ± 3.3 | 1100.1 ± 3.3 | – | – | 11.97 ± 1.7 | 9.461 ± 1.3
x1 = 0.6481 | 1103.65 ± 3.3 | 1100.22 ± 3.3 | 1702.1 ± 1.8 | 1691 ± 1.8 | – | –
x1 = 0.6773 | 1104.88 ± 3.3 | 1101.43 ± 3.3 | 1699 ± 1.8 | 1687.8 ± 1.8 | – | –
x1 = 0.7012 | 1105.75 ± 3.3 | 1102.3 ± 3.3 | – | – | 13.33 ± 1.9 | 10.55 ± 1.5
x1 = 0.7421 | 1107.16 ± 3.3 | 1103.69 ± 3.3 | 1692.2 ± 1.8 | 1680.8 ± 1.8 | – | –
x1 = 0.7435 | 1107.22 ± 3.3 | 1103.76 ± 3.3 | – | – | 14.35 ± 2 | 11.32 ± 1.6
x1 = 0.7811 | 1108.41 ± 3.3 | 1104.94 ± 3.3 | 1688 ± 1.8 | 1676.5 ± 1.8 | – | –
x1 = 0.7907 | 1108.69 ± 3.3 | 1105.22 ± 3.3 | – | – | 15.51 ± 2.2 | 12.24 ± 1.7
x1 = 0.8497 | – | 1106.83 ± 3.3 | 1681 ± 1.8 | 1669.3 ± 1.8 | – | –
x1 = 0.8505 | – | 1106.84 ± 3.3 | – | – | 16.94 ± 2.4 | 13.35 ± 1.9
x1 = 0.89 | 1111.29 ± 3.3 | 1107.8 ± 3.3 | – | – | 17.91 ± 2.5 | 14.12 ± 2
x1 = 0.9002 | 1111.55 ± 3.3 | 1108.06 ± 3.3 | 1676 ± 1.8 | 1664.3 ± 1.8 | – | –
x1 = 0.9059 | 1111.66 ± 3.3 | 1108.17 ± 3.3 | 1675.5 ± 1.8 | 1663.8 ± 1.8 | – | –
x1 = 0.912 | 1111.78 ± 3.3 | 1108.29 ± 3.3 | 1675 ± 1.8 | 1663.3 ± 1.8 | – | –
x1 = 0.9299 | 1112.18 ± 3.3 | 1108.69 ± 3.3 | 1673.3 ± 1.8 | 1661.5 ± 1.8 | – | –
x1 = 0.9413 | 1112.43 ± 3.3 | 1108.94 ± 3.3 | 1672.2 ± 1.8 | 1660.4 ± 1.8 | – | –
x1 = 0.9495 | 1112.62 ± 3.3 | 1109.13 ± 3.3 | 1671.4 ± 1.8 | 1659.6 ± 1.8 | – | –
x1 = 0.9532 | 1112.69 ± 3.3 | 1109.19 ± 3.3 | – | – | 19.48 ± 2.7 | 15.35 ± 2.1
x1 = 0.9546 | 1112.73 ± 3.3 | 1109.23 ± 3.3 | 1671 ± 1.8 | 1659.2 ± 1.8 | – | –
x1 = 0.9681 | 1112.99 ± 3.3 | 1109.49 ± 3.3 | 1669.9 ± 1.8 | 1658.1 ± 1.8 | – | –
x1 = 0.9789 | 1113.19 ± 3.3 | – | 1669 ± 1.8 | 1657.2 ± 1.8 | – | –
x1 = 0.9893 | 1113.4 ± 3.2 | – | 1667.9 ± 1.8 | 1656.1 ± 1.8 | – | –
x1 = 1 | 1113.72 ± 3 | – | 1666.5 ± 1.8 | 1654.7 ± 1.8 | 20.61 ± 2.9 | 16.22 ± 2.3
